Molecules are shown by their SMILES.

The text below walks through data of ChEMBL document CHEMBL1143226, “Potent inhibitors of the hedgehog signaling pathway” (J Med Chem, 2008).

The assay is described as follows: Antagonist activity at Hedgehog receptor expressed in 10t1/2 cells by Gli-luciferase reporter gene assay. The format is functional, cell-based.
For `CC(NC(=O)Nc1cccc(C(F)(F)F)c1)c1nc2ccccc2c(=O)n1-c1ccc(F)cc1` (stereo not given), the midpoint of inhibition, the IC50, lay at 4700 nM. For `CC(C)n1c(CNC(=O)Nc2cccc(C(F)(F)F)c2)nc2ccccc2c1=O`, the IC50 worked out at 4300 nM. In turn, `CCc1nc2ccccc2c(=O)n1-c1ccc(F)cc1` returned a 50% inhibitory concentration (IC50) of over 10000 nM. With `O=C(NCc1nc2ccccc2c(=O)n1-c1ccc(F)cc1)Nc1ccc(Cl)c(C(F)(F)F)c1` the figure was 70 nM; with `O=C(NCc1nc2ccccc2c(=O)n1-c1ccc(F)cc1)Nc1cccc(C(F)(F)F)c1`, 700 nM. For `COc1cc(NC(=O)NCc2nc3ccccc3c(=O)n2-c2ccc(F)cc2)cc(C(F)(F)F)c1`, it took 250 nM to reach half-maximal inhibition (IC50). `CN(Cc1nc2ccccc2c(=O)[nH]1)C(=O)Nc1cccc(C(F)(F)F)c1` gave an IC50 of over 10000 nM. Then `CC(c1nc2ccccc2c(=O)n1-c1ccc(F)cc1)N(C)C(=O)Nc1cccc(C(F)(F)F)c1` (stereo not given), with 1400 nM; and `O=C(NCc1nc2ccccc2c(=O)n1-c1ccc(F)cc1)Nc1cc(Cl)nc(Cl)c1`, with 110 nM. With `CNC(C)c1nc2ccccc2c(=O)n1-c1ccc(F)cc1` (stereo not given) the figure was over 10000 nM.
